The text below walks through data of paper PMC5896373 (Molecular Pharmacology, 2018).

The target of one assay is T1, P2X7-2Nβ 73–79 deletion (Homo sapiens, UniProt Q99572, DEL73-79/I21V/M24R/N16P/N25R/Q22R/R20V/S23N/T19I/Y26L).
T1 construct: expressed in transfected cells; host or cells: Xenopus laevis oocytes (cRNA injection)
T1 sequence (Q99572 with tags, fused parts or gaps N16P/T19I/R20V/I21V/Q22R/S23N/M24R/N25R/Y26L/DEL73-79): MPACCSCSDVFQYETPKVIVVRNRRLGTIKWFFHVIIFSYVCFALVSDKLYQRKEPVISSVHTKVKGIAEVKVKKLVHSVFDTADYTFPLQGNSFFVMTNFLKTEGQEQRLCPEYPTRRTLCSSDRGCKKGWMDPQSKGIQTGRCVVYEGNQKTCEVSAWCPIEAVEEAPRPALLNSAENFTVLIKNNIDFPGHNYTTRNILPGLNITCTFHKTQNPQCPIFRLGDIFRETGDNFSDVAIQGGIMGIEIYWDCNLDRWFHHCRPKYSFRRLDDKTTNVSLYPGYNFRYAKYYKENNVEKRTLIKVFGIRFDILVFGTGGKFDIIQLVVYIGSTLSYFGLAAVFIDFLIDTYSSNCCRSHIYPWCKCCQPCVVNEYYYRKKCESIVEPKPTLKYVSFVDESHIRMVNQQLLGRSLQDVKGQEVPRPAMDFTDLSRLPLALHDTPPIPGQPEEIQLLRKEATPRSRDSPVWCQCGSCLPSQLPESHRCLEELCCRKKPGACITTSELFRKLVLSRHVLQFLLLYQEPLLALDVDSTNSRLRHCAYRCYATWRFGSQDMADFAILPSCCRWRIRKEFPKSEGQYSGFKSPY
The assay can be described thus: Two-electrode voltage clamp of ATP-evoked currents in Xenopus oocytes. It counts as cell-based. A general note: Two-electrode voltage clamp is typically applied to oocytes expressing channels or transporters.

For assay [1], the target named is T2, chimeric P2X7/1 receptor 81–88 (Homo sapiens, UniProt Q99572, F88W/H85P/I21V/K81P/K82G/M24R/N16P/N25R/Q22R/R20V/S23N/S86Q/T19I/V84G/Y26L).
T2 construct: expressed in transfected cells; host or cells: Xenopus laevis oocytes (cRNA injection)
T2 sequence (Q99572 1-595 N16P/T19I/R20V/I21V/Q22R/S23N/M24R/N25R/Y26L/K81P/K82G/V84G/H85P/S86Q/F88W): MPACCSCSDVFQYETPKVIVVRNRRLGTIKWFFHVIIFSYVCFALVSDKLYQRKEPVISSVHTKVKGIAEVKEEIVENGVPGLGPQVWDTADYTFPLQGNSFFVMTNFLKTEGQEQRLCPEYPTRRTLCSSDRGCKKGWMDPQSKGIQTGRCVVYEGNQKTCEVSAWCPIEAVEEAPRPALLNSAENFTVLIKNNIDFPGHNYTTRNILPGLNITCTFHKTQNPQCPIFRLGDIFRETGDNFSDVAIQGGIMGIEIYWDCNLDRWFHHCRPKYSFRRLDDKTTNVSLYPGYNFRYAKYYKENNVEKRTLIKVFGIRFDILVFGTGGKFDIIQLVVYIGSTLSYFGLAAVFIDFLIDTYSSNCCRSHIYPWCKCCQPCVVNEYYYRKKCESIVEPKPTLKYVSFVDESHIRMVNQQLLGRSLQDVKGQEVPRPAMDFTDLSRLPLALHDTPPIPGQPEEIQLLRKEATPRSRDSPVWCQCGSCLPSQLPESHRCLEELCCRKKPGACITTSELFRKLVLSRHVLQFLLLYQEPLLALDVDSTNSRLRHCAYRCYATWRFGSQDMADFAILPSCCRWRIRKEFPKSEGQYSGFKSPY
Described as above. The format is cell-based.
Procedure: (§1) Additional point mutants were made using the QuikChange mutagenesis kit (Stratagene California, La Jolla, CA). The production of the correct mutations and absence of coding errors was determined by DNA sequencing (Automated ABI Sequencing Service, University of Leicester, UK). cRNA was generated for the mutants and 50 nl (50 ng) was injected into manually defoliculated stage V Xenopus laevis oocytes using an Inject+Matic microinjector (J.A. Gabay, Inject+Matic, Geneva, Switzerland). Injected oocytes were stored at 16°C in ND96 buffer [in millimolar concentrations, NaCl 96, KCl 2, CaCl2 1.8, MgCl2 1, sodium pyruvate 5, and HEPES 5 (pH 7.6) supplemented with 50 μg/ml gentamycin and 50 μg/ml tetracycline]. Three to seven days postinjection two-electrode voltage clamp recordings were made from oocytes bathed in divalent-free ND96 buffer (in millimolar concentrations, NaCl 96, KCl 2, sodium pyruvate 5, HEPES 5, and 0.1 flufenamic acid, pH 7.6). Oocytes were voltage clamped at a holding potential of −60 mV with a GeneClamp500B amplifier (Molecular Devices).
(§2) Inhibition by the antagonists was expressed as the percentage of the peak current amplitude of an EC90 concentration of ATP recorded before the application of antagonist (ATP gave reproducible responses to ATP in the absence of antagonist). Inhibition curves were fitted with the Hill equation (variable slope) using GraphPad Prism 6 (GraphPad Software, San Diego, CA). […] Individual concentration-response curves were generated for individual experiments, and statistical analysis was carried out on the data generated. […] Data are shown as mean ± S.E.M. In all cases n ≥ 3 for all data points.

The test system of assay [2] is chimeric P2X7/1 receptor 112–118. Briefly: cell-based. It counts as cell-based, human. The conditions noted are these: chimera 112–118.
Procedure: as §1, §2
The next assay concerns the target T3, P2X7R point mutant T94V (Homo sapiens, UniProt Q99572, I21V/M24R/N16P/N25R/Q22R/R20V/S23N/T19I/T94V/Y26L).
T3 construct: expressed in transfected cells; host or cells: Xenopus laevis oocytes (cRNA injection)
The assay can be described thus: Two-electrode voltage clamp of ATP-evoked currents in Xenopus oocytes. Conditions: EC90 ATP, mean ± S.E.M. The format is cell-based.

In another assay the target is T4, P2X7R point mutant K297G (Homo sapiens, UniProt Q99572, I21V/K297G/M24R/N16P/N25R/Q22R/R20V/S23N/T19I/Y26L).
T4 construct: expressed in transfected cells; host or cells: Xenopus laevis oocytes (cRNA injection)
The assay is described as above. The format is cell-based. The conditions noted are these: EC90 ATP, mean ± S.E.M.

The next assay deals with T5, P2X7R point mutant L83A (Homo sapiens, UniProt Q99572, I21V/L83A/M24R/N16P/N25R/Q22R/R20V/S23N/T19I/Y26L).
T5 construct: expressed in transfected cells; host or cells: Xenopus laevis oocytes (cRNA injection)
The assay is described as above. The format is cell-based. Conditions: EC90 ATP, mean ± S.E.M.

Another assay has as its target T6, P2X7R point mutant F95A (Homo sapiens, UniProt Q99572, F95A/I21V/M24R/N16P/N25R/Q22R/R20V/S23N/T19I/Y26L).
T6 construct: expressed in transfected cells; host or cells: Xenopus laevis oocytes (cRNA injection)
Briefly: cell-based.

The target in another assay is T7, P2X7R point mutant M105A (Homo sapiens, UniProt Q99572, I21V/M105A/M24R/N16P/N25R/Q22R/R20V/S23N/T19I/Y26L).
T7 construct: expressed in transfected cells; host or cells: Xenopus laevis oocytes (cRNA injection)
The assay can be described thus: Two-electrode voltage clamp of ATP-evoked currents in Xenopus oocytes. It counts as cell-based. Conditions: EC90 ATP, mean ± S.E.M.

The subject of assay [3] is P2X7R left flipper point mutant T283A. The assay is described as above. It counts as cell-based, human.
Procedure: (§3) Injected oocytes were stored at 16°C in ND96 buffer [in millimolar concentrations, NaCl 96, KCl 2, CaCl2 1.8, MgCl2 1, sodium pyruvate 5, and HEPES 5 (pH 7.6) supplemented with 50 μg/ml gentamycin and 50 μg/ml tetracycline]. Three to seven days postinjection two-electrode voltage clamp recordings were made from oocytes bathed in divalent-free ND96 buffer (in millimolar concentrations, NaCl 96, KCl 2, sodium pyruvate 5, HEPES 5, and 0.1 flufenamic acid, pH 7.6). Oocytes were voltage clamped at a holding potential of −60 mV with a GeneClamp500B amplifier (Molecular Devices).
Electrophysiological traces were digitized with a Digidata 1322A and collected using pCLAMP 8.2 software (Molecular Devices, Menlo Park, CA). An EC90 concentration of ATP was used to test antagonist sensitivity for the P2X7-2Nβ and mutant receptors [ATP sensitivity of the chimeras and mutants are reported in [Allsopp et al. (2017)]] to standardize for any changes in ATP sensitivity.
Inhibition by the antagonists was expressed as the percentage of the peak current amplitude of an EC90 concentration of ATP recorded before the application of antagonist (ATP gave reproducible responses to ATP in the absence of antagonist). […] Any significant differences from the P2X7-2Nβ control were calculated by one-way analysis of variance, followed by Dunnett’s test (using GraphPad Prism 6). […]
Assay [4] addresses T8, chimeric P2X7/1 receptor 89–94 (Homo sapiens, UniProt Q99572, I21V/M24R/N16P/N25R/Q22R/R20V/S23N/T19I/T90V/T94V/Y26L).
T8 construct: expressed in transfected cells; host or cells: Xenopus laevis oocytes (cRNA injection)
T8 sequence (Q99572 1-595 N16P/T19I/R20V/I21V/Q22R/S23N/M24R/N25R/Y26L/T90V/T94V): T2 sequence (Q99572 1-595 N16P/T19I/R20V/I21V/Q22R/S23N/M24R/N25R/Y26L/K81P/K82G/V84G/H85P/S86Q/F88W) with P81K, G82K, G84V, P85H, Q86S, W88F, T90V, T94V
Also on record: method as in Allsopp et al., 2017. Conditions: chimera 89–94; ref Allsopp et al., 2017; cited from earlier work.

Residue numbers refer to the chain shown, from its start.

T4 sequence (Q99572 whole entry N16P/T19I/R20V/I21V/Q22R/S23N/M24R/N25R/Y26L/K297G): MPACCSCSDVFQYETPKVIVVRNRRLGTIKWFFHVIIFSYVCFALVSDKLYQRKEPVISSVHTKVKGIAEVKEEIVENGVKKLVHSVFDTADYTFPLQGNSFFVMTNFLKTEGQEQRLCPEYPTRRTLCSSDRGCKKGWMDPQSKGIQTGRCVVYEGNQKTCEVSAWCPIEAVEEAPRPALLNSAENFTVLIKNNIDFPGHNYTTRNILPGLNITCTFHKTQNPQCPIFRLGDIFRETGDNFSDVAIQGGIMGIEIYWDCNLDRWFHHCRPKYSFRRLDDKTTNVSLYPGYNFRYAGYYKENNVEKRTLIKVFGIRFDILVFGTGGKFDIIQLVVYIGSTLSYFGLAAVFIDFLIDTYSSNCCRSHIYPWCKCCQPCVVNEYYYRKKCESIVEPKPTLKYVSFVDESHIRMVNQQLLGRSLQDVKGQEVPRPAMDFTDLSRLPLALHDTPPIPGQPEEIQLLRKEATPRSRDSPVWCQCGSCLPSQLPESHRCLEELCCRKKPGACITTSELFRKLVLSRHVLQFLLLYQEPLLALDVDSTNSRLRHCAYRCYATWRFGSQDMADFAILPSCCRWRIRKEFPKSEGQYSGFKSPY
T3 sequence (Q99572 whole entry N16P/T19I/R20V/I21V/Q22R/S23N/M24R/N25R/Y26L/T94V): as the sequence (Q99572 whole entry N16P/T19I/R20V/I21V/Q22R/S23N/M24R/N25R/Y26L/K297G) above, with T94V, G297K counted along it
T5 sequence (Q99572 whole entry N16P/T19I/R20V/I21V/Q22R/S23N/M24R/N25R/Y26L/L83A): as the sequence (Q99572 whole entry N16P/T19I/R20V/I21V/Q22R/S23N/M24R/N25R/Y26L/K297G) above, with L83A, G297K counted along it
T6 sequence (Q99572 whole entry N16P/T19I/R20V/I21V/Q22R/S23N/M24R/N25R/Y26L/F95A): as the sequence (Q99572 whole entry N16P/T19I/R20V/I21V/Q22R/S23N/M24R/N25R/Y26L/K297G) above, with F95A, G297K counted along it
T7 sequence (Q99572 whole entry N16P/T19I/R20V/I21V/Q22R/S23N/M24R/N25R/Y26L/M105A): as the sequence (Q99572 whole entry N16P/T19I/R20V/I21V/Q22R/S23N/M24R/N25R/Y26L/K297G) above, with M105A, G297K counted along it
Procedure for P2X7-2Nβ 73–79 deletion: as §1, §2
Procedure for P2X7R point mutant F95A: as §3, §2
Procedure for P2X7R point mutant K297G: as §1
(§4) Inhibition by the antagonists was expressed as the percentage of the peak current amplitude of an EC90 concentration of ATP recorded before the application of antagonist (ATP gave reproducible responses to ATP in the absence of antagonist). […]
Procedure for P2X7R point mutant L83A: as §3, §2
Procedure for P2X7R point mutant M105A: as §3, §2
Procedure for P2X7R point mutant T94V: as §1, §4

Usually IC50 stands for the point on the concentration scale where inhibition reaches its midpoint. A low value points to inhibition by little substance. `COc1ccc(CC(=O)NC(N=C(NC#N)Nc2cccc3ncccc23)C(C)(C)C)cc1OC` (stereo not shown) [A740003, N-[1-[[(cyanoamino)(5-quinolinylamino)methylene]amino]-2,2-dimethylpropyl]-3,4-dimethoxybenzeneacetamide]: the IC50 was 79.4 nM against P2X7-2Nβ 73–79 deletion; 79.4 nM in assay [1]; 398 nM on P2X7R point mutant T94V; 12.6 nM against P2X7R point mutant K297G; 316 nM against P2X7R point mutant L83A; 1000 nM on P2X7R point mutant F95A. This molecule also gave an IC50 against P2X7R point mutant M105A of 12600 nM. The “effect on antagonist sensitivity relative to P2X7-2Nβ” value at P2X7-2Nβ 73–79 deletion (73–79 deletion) is given as “unaffected”. In addition, the “effect on antagonist potency relative to P2X7-2Nβ” value in [1] (chimera 81–88) is “no effect”. The “fold decrease in antagonist sensitivity relative to P2X7-2Nβ” value in [2] is approximately 3 fold. For the same molecule, the “fold decrease in antagonist sensitivity/affinity relative to P2X7-2Nβ” value in [3] is recorded as approximately 4 fold.

For the molecule `Cl.Cl.O=C(CC12CC3CC(CC(C3)C1)C2)Nc1cccc2nc(NCCNCCO)ccc12` [AZ10606120, N-[2-[[2-[(2-hydroxyethyl)amino]ethyl]amino]-5-quinolinyl]-2-tricyclo[3.3.1.13,7]dec-1-ylacetamide dihydrochloride], the “fold decrease in antagonist affinity” value in assay [4] is reported as more than 300 fold.

As for `Cl.Clc1cccc(-c2nnnn2Cc2cccnc2)c1Cl.O` [A438079, 3-(5-(2,3-dichlorophenyl)-1H-tetrazol-1-yl)methyl pyridine hydrochloride hydrate], the IC50 against P2X7-2Nβ 73–79 deletion was 200 nM; in assay [1], 1000 nM; at P2X7R point mutant T94V, more than 100000 nM; on P2X7R point mutant K297G, 50.1 nM; against P2X7R point mutant L83A, 794 nM; on P2X7R point mutant F95A it was more than 100000 nM. The molecule also showed an IC50 at P2X7R point mutant M105A of 1580 nM.
